Experimental data published in patent publication US9040637B2, “Manganese comprising nanostructures” (SPAGO IMAGING AB, priority 2011, dated 2015).

Experiments:
Type in all cases: physicochemical
[1] = Relaxivity (r1, r2) measurement at 1.91 T (81.33 MHz); settings: in H2O @ 25 C.
Description: Furthermore, the effect of a compound on the T1 is given as the relaxivity so a high relaxivity gives a stronger signal enhancement. The relaxivity (r) is frequency dependent in a structure dependent way which complicates the comparison of data from the literature from different sources. The clinical MRI scanners usually have a magnetic field of 1.5 or 3 Tesla so we have measured our relaxivities at 1.91 T, corresponding to a proton resonance frequency of 81.3 MHz, as a reasonable compromise. Measurements may also be done at other frequencies, such as 60 MHz. The relaxivity for the commercially available gadolinium based contrast agents are close to 4/mMGd/s at the clinically relevant fields.

[2] = Complexometric stability test (equimolar EDTA) evaluated by relaxometry; settings: 1 mM Mn standard + equimolar EDTA, pH 7±0.5, 60 MHz, 37° C.
Protocol: Measure the longitudinal relaxivity of a nanostructure solution (r1(ns)) having a concentration of 1 mM Mn. Prepare another nanostructure solution containing 1 mM Mn and add an equivalent molar amount of EDTA. The pH of this solution must be adjusted to pH 7±0.5, if necessary. Measure the longitudinal relaxivity of this nanostructure solution with added EDTA (r1(ns+EDTA)). As a reference material, 1 mM solution using a Manganese Standard for AAS (Fluka 77036) is prepared, added an equimolar amount of EDTA, and pH adjusted to pH 7±0.5. The longitudinal relaxivity is measured (r1(Mn+EDTA)) and resulted to a value of 1.6 mM^−1s^−1. To calculate the % Mn-released from the nanostructure after addition of equivalent EDTA:
[formula] Note: Relaxation (T1, in seconds) is measured using the Minispec mq60 NMR analyzer (60 MHz) at 37° C. and relaxivity r1 is calculated using:
[formula] where T1 H2O=[…]; c1=1 mM.

[3] = Hydrodynamic diameter by dynamic light scattering (DLS), volume average; settings: aqueous solution
Protocol: The term “DLS” as used herein is an acronym for dynamic light scattering, a particle sizing method, and may also be referred to as Photon Correlation Spectroscopy or Quasi-Elastic Light Scattering. The DLS sizes given as stated in the text and in the claims, if nothing else is specified, refers to the position of the maximum of the volume average peak for a sample measured at 25° C. in neutral aqueous solution with an ionic strength corresponding to 150 mM NaCl.
The hydrodynamic diameter referred to, is the diameter of the equivalent hard sphere as calculated from the diffusion coefficient, according to the Stokes-Einstein equation. The diffusion coefficient is in turn calculated from the time dependent light scattering data obtained by the Dynamic Light Scattering (DLS) technique. As a comparison, bovine serum albumin is measured to have a hydrodynamic diameter of 6.5 nm by DLS in aqueous solution, very much in agreement with the crystal structure. Depending on whether the number average, volume average, or scattered intensity average is used, the values may be somewhat different. […] The average diameters referred to in this text refers to volume averages.

## [Cl][Mn][Cl] [MnCl2]
[1]
  r1: 5.8

## Mn+EDTA
[2]
  longitudinal relaxivity r1(Mn+EDTA): 1.6 mM⁻¹ s⁻¹

## bovine serum albumin: size comparison for DLS
[3]
  hydrodynamic diameter by DLS: 6.5 nm
